In a melting point compilation (Tetko et al.; mined from patent text by program, amines drawn as free bases though some values may be those of a salt):

Row | melting point [°C] | Compound
1 | 140 to 141 | COc1ccc(C(=O)c2ccccc2)cc1OCCCN1CCC(c2noc3cc(F)ccc23)CC1
2 | 81 to 82 | CCCCCCCCCCCCCCOc1ccc(O)cc1
3 | 178 to 179 | COc1cc(CCCC2OC(=O)NC2=O)ccc1OCc1coc(/C=C/c2ccccc2)n1 (stereo not given)
4 | 117 to 118 | Cc1sc(-c2ccccc2)nc1COc1ccc(CCC[C@@H](O)C(=O)O)cc1
5 | 85 to 87 | CCCc1c(OCCCCCCc2cccc(OCCCC(C)(C)C(=O)O)c2CCC(=O)O)ccc2c1OCCC2=O
6 | 172 to 173 | COc1cc(OCCOc2ccccc2)c2c(=O)[nH]c(-c3cc(C)nc(C)c3)nc2c1
7 | 68 to 69 | CCCCCCCCCCCCCCc1ccc(C(=O)O)[nH]1
8 | 205 to 207 | O=c1cc(N2CCCCC2)oc2c1ccc1ccccc12
9 | 221 to 223 | Cc1oc(-c2ccccc2)nc1CCOc1ccc(C[C@H](NC(=O)C=Cc2ccc(F)cc2F)C(=O)O)cc1Br
10 | 258 to 260 | COc1ccc(-c2cc(OCC(=O)O)nc(Nc3ccc(OC)c(Cl)c3)n2)cc1
11 | 49 to 52 | COC(=O)NCc1cccc(-c2ccccc2)c1
12 | 178 to 180 | CNC(C)CCC1(C(N)=O)c2ccccc2-c2ccccc21 (stereo not given)
13 | 32 to 34 | BrCCCCCCCc1ccc(OCc2ccccc2)cc1
14 | 129 | COc1ccc(CCN2CCC(=C3c4ccccc4CCn4ncnc43)CC2)cc1
15 | 190 to 192 | O=C(O)c1cc(NC(=O)C(CS)Cc2ccccc2)ccc1Cl (stereo not given)
16 | 240 to 242 | COc1cc(COc2cccc(CC(=O)O)c2-c2cccc(C(=O)O)c2)ccc1C12CC3CC(CC(C3)C1)C2

Row | melting point [°C] | Compound
17 | 116 to 117 | OCCOCC(O)c1ccc(OCc2ccccc2)cc1 (stereo not given)
18 | 117 to 119 | CC(=O)CC1CC2CN(C(=O)c3ccccc3)c3cccc(c32)C1=O (stereo not given)
19 | 164 to 166 | O=C(Oc1ccccc1)N1C=CC(c2c(-c3ccc(F)cc3)nc3n2CCS3)C=C1
20 | 222 to 223 | CSCc1cccc(CNC(=O)c2nc3scc(COCc4ccc(C(=O)O)cc4)c3c(=O)[nH]2)c1
21 | > 250 | Nc1cccc(C(=O)Nc2nccn(-c3ccccc3)c2=O)c1
22 | 159 to 160 | COc1nc(N)nc(-c2ccccc2)n1
23 | 200 | COc1ccc(Cl)cc1N1C(=O)NC(=O)C1c1ccccc1 (stereo not given)
24 | 210 to 212 | COc1cc(C=C2SC(=O)NC2=O)ccc1OCCN1c2ccccc2Sc2ccccc21
25 | 207 to 209 | C#CC1N(C(=O)Oc2ccccc2)c2ccc(OCc3ccccc3[N+](=O)[O-])cc2C23OC12CCCC3O (stereo not given)
26 | 80.2 | C=CCCC(C#N)(C#N)Cc1ccc(OC(C)=O)cc1
27 | 105 to 108 | c1ccc(CCn2cnc3cnc4ccccc4c32)cc1
28 | 203 to 206 | NC1=NN(c2ccccn2)C(c2ccccc2)C1 (stereo not given)
29 | 202 to 206 | N#CCc1c[nH]c2ccc(CS(=O)(=O)NCc3ccccc3C(N)=O)cc12
30 | 97 to 99 | CCCCCCCCCCOc1ccc(-c2ccc(C#CCCC(C)O)cc2)cc1 (stereo not given)
31 | 185 to 187 | CC1(C)C(=O)Nc2ccccc2C1(O)c1ccccc1 (stereo not given)
32 | 101 to 102 | COCCNC(=O)c1cccc(-c2cccc3nc(Cc4cccc(C(F)(F)F)c4)sc23)c1

Second part, the molecule before the results:

Row | Compound | melting point [°C]
33 | O=C(NCC12CC3CC(CC(C3)C1)C2)c1cc(-c2ccc(F)cc2C(=O)O)ccc1Cl | 126 to 128
34 | COc1ccc(Nc2nc(NC3CC3)nc(NC3CC3)n2)cc1F | 91 to 92
35 | Cc1ccc(S(=O)(=O)Nc2ccc(C#N)cc2)cc1 | 182 to 184
36 | c1ccc(C2CCNC3=NCCN32)cc1 (stereo not given) | 146
37 | O=Cc1ccccc1-c1noc2cc(Cl)ccc12 | 116 to 117
38 | O=[N+]([O-])c1cc(C(c2ccc(NCc3ccccc3)c([N+](=O)[O-])c2)(C(F)(F)F)C(F)(F)F)ccc1NCc1ccccc1 | 168 to 172
39 | COc1cc2c(cc1OC)C(c1ccccc1N)=NN=C(C)C2 | 172 to 174
40 | CCCCCC(CC(=O)Nc1cc(C(N)=O)ccc1C(C)(C)C)c1ccc(C(O)CCC)cc1OC (stereo not given) | 153 to 155
41 | CCOC(=O)C1CSC(COc2ccc(OC)cc2)N1C(=O)CCl (stereo not given) | 69 to 71
42 | COc1cc(C)cc(S(=O)(=O)c2cccc(N)c2C#N)c1 | 166 to 168
43 | CN(C)C=Nc1cccc2nc(N3CCN(C)CC3)c(N3CCN(C)CC3)nc12 | 183 to 186
44 | COc1nc2c(cc1C#N)CCCCC2 | 83.5 to 84
45 | O=C(CCCCC1(C(=O)O)CCCC1)CCCCC1(C(=O)O)CCCC1 | 99 to 103
46 | CN(C)C1Cc2cccc3[nH]c(=O)n(c23)C1 (stereo not given) | 220 to 223
47 | CCOC(=O)C(=CNC1CC1)C(=O)c1cc(F)c(F)cc1Cl | 55 to 58
48 | COc1ccnc(C(=O)N[C@H]2COC(=O)[C@H](CC3CCCCC3)[C@@H](OC(=O)C(C)C)[C@H](C)OC2=O)c1OC(C)=O | 164 to 170
49 | CCOC(=O)c1c(C)nc(Cl)c([N+](=O)[O-])c1NCCCN(C)C | 20
50 | COC(=O)Cn1nnnc1-c1cccc(C#N)c1 | 67 to 69
51 | C=CCC(C)(C)CNc1cc(N2CCNCC2)nc(NCC(C)(C)CC=C)n1 | 72 to 84
52 | COC(=O)c1c2c(c3cc(OC)c(OC)c(OC)c3c1-c1cc(OC)c(OC)c(OC)c1)OCOC2=O | 165 to 167
53 | CCOC(=O)c1cn(CC)c2ncncc2c1=O | 136
54 | COc1cc(OC)cc(C(NCC(=O)Nc2c(C(C)C)cccc2C(C)C)c2ccccc2C)c1 (stereo not given) | 138 to 139
55 | Cc1ccc(C(=O)CC(=O)C2CC2)c(S(C)(=O)=O)c1 | 129 to 131

Row | Compound | melting point [°C]
56 | CC(C)=C1C(=O)N(c2ccc(N)cc2)C(=O)/C1=C(\C)c1cc(-c2ccccc2)sc1C | 193 to 195
57 | Cc1ccc(S(=O)(=O)C2(CCCC#Cc3cccnc3)SC(=O)NC2=O)cc1 (stereo not given) | 173 to 176
58 | CC(=O)C(=Cc1cccc([N+](=O)[O-])c1)P(=O)(OCC(C)C)OCC(C)C | 81 to 82
59 | CCNc1ccc(Cl)cc1[N+](=O)[O-] | 90 to 91
60 | COc1ccc(S(=O)(=O)N2C(=O)C(N)(c3cc(OC)ccc3OC)c3cc(Cl)ccc32)c(OC)c1 (stereo not given) | 191
61 | CN1CCN(c2ccc(-c3cnc4c(c3)C(O)CCN4)cn2)CC1 (stereo not given) | 124 to 128
62 | Cn1c(NO)cc(=O)n(C2CCCCC2)c1=O | 153 to 155
63 | CCOC(=O)N1CCN(CCS(=O)c2ccccc2)CC1 (stereo not given) | 76
64 | OC1(c2cncc(Br)c2)CCCC1 | 74
65 | Cc1ccc(C(=O)NCc2ccc(Br)cc2F)c(OCC(=O)O)c1 | 188 to 189
66 | Cc1cc(S(C)(=O)=O)c(S(C)(=O)=O)cc1C(=O)O | 234 to 235
67 | O=C1OCCN1CCCC(c1cc(F)ccc1F)S(=O)(=O)c1ccc(Cl)cc1 (stereo not given) | 156 to 159
68 | C#CC(C)(C)c1cc(NC(=O)NC)no1 | 99 to 100
69 | COC(=O)c1cn(S(=O)(=O)c2ccc(C)cc2)c(C)c1C | 108 to 114
70 | O=S1C(Cl)=C(Cl)CN1C1CCCCC1 (stereo not given) | 115 to 116
71 | O=C1NCC2=C1c1ccc(Cl)cc1C(c1ccccc1Cl)=NC2 | 195 to 197
72 | C[C@@H]1CCN(C(=O)C(C)(C)C)[C@@H](C(=O)O)C1 | 87 to 90
73 | CS(=O)(=O)OCCc1ccc([N+](=O)[O-])cc1COS(C)(=O)=O | 83 to 85
74 | O=C1c2cc(O)ccc2OCC1Cc1ccccn1 (stereo not given) | 150 to 151
75 | O=C(C=Cc1ccc(O)cc1)c1c(O)cccc1O | 190 to 192
76 | O=C(c1ccc(-c2ccc(=O)n(-c3ccc(F)cc3)n2)cc1)N1CCC[C@H]1CN1CCCC1 | 177
77 | CC(=O)OC(COc1ccc(C(=O)O)c(O)c1)c1ccc2c(c1)C(C)(C)CCC2(C)C (stereo not given) | 160 to 161
78 | O=C(O)c1cn2c3c(cc(F)cc3c1=O)C1CCCCC12 (stereo not given) | 281 to 282

Row | Compound | melting point [°C]
79 | CCCn1cnc2c1c1nnc(-c3ccncc3)n1c(=O)n2CCC | 194 to 199
80 | CC1(C)OC(=O)Nc2ccc(-c3cc(C#N)ccc3F)cc21 | 229 to 230
81 | COC(=O)N1CCc2cc(S(=O)(=O)Cl)ccc21 | 113 to 114
82 | O=C(O)CN1CCOCC1 | 169 to 170
83 | Cc1c(OCC(=O)O)ccc2c(=O)c3c(F)cccc3oc12 | 259 to 261
84 | O=c1ccn([C@@H]2C[C@H](O)[C@@H](O)[C@H]2O)cc1 (racemic) | 186 to 188
85 | COc1cccc(-n2[nH]c(Cc3c(C)n(C(=O)c4ccc(Cl)cc4)c4ccc(OC)cc34)cc2=O)c1 | 102 to 104
86 | COc1ccccc1N1CCN(c2nc3cccc4c3n2CCC4)CC1 | 199 to 201
87 | Nc1ccc2[nH]c3ccc([N+](=O)[O-])cc3c(=O)c2c1 | > 350
88 | CCCn1c(=O)c2[nH]c(C34CCC(C)(C(=O)O3)C4(C)C)nc2n(CCC)c1=O (stereo not given) | 200 to 201
89 | CNc1nc(Cl)nc2c(Cl)ncnc12 | 196 to 197
90 | O=C(NC(=O)c1c(Cl)cccc1Cl)Nc1ccc(C(F)(F)F)cc1 | 200
91 | COc1cnc(C(=O)Cc2c(Cl)cncc2Cl)cc1OC1CCCC1 | 132
92 | CCOc1cc2nc(NC)nc(-c3cccc(Br)c3)c2cc1OCC | 130 to 132
93 | CCCn1c(=O)c2c(nc(C=Cc3cc(OC)c(OC)cc3S(=O)(=O)N(CC)CC)n2C)n(CCC)c1=O | 227 to 228
94 | COc1ccccc1-n1c(-c2cc(-c3ccncc3)c(N3CCOCC3)s2)nc2ccccc2c1=O | 204 to 205
95 | Cc1nc2c(s1)C(=O)C(=CN1CCOCC1)CC2 | 186 to 187
96 | Cc1ccc(NC(=O)c2cccc(C(F)(F)F)c2)cc1NC(=O)N(C)c1cc(Nc2ccc(N3CCN(C)CC3)cc2)ncn1 | 190 to 191
97 | CCCc1c(OCc2cccc(C(=O)O)c2OCC)ccc(C(C)=O)c1O | 154 to 156
98 | CN1CCC(c2c(O)cc(O)c3c(=O)cc(-c4ccccc4Cl)oc23)C1CS (stereo not given) | 205 to 206
99 | Nc1ccccc1N1CCN(C=O)CC1 | 129 to 133
100 | CS(=O)(=O)Nc1cc2occc(=O)c2cc1Oc1ccccc1C(=O)O | 243 to 246
